The values that follow come from patent US6692743B1, “Apoptosis of naive human NK cells by crosslinking of their FcγRIIIa molecules with a rat IgG2b (LO-CD2a/BTI-322) or its IgG1 humanized monoclonal antibody” (Universite Catholique de Louvain, priority 1998, dated 2004).

Numbered stars: 1 amine (or outer) side, 2 acyl side, 3 side chain; on linkers, the order of the positions; unused ones are H or OH. Bridge positions count the residues as written; N and C are the ends. Square brackets hold non-standard residues; d marks the D form. Peptide text beside a SMILES is read from it. I, II: the chains in the order shown. Actinocin(9to1) = Cc1c2oc3c(C)ccc(C(=O)[*:1])c3nc-2c(C(=O)[*:2])c(N)c1=O; NMeV = CN[C@H](C(=O)O)C(C)C; Sar = CNCC(=O)O

The test deals with freshly isolated NK cells. Briefly: Effect of different inhibitors on LO-CD2a mediated NK apoptosis (PI, flow cytometry). It is filed as cell-based, human. The note with it: 3 h pre-incubation with inhibitor, then 3 hours with LO-CD2a; 5 donors. How it is done: Effect of different inhibitors on LO-CD2a mediated NK apoptosis. 100 ul of freshly isolated NK cells (10^6/ml) were pre-incubated for 3 h at 37° C. in a 96 well plate with EGTA (20 mM), staurosporin (250 nM), quinacrine ([…]), cyclosporin A ([…]), FK506 ([…]), wortmannin (500 ng/ml), concanamycin A ([…]), cytochalasine D (1 mg/ml), actinomycin) (500 ng/ml final concentration), NOK-1 (25 mg/ml) or medium alone. After incubation for 3 hours with LO-CD2a ([…] final concentration) propidium iodide was added and cell mortality was analysed by flow cytometry.
As to `O=C(O)CN(CCOCCOCCN(CC(=O)O)CC(=O)O)CC(=O)O` [EGTA], the “inhibition of LO-CD2a mediated NK apoptosis (in words)” value (shortened to “inhibition”) was “completely inhibited”.
For `Cc1c2oc3c(C)ccc(C(=O)N[C@@H]4C(=O)N[C@H](C(C)C)C(=O)N5CCC[C@H]5C(=O)N(C)CC(=O)N(C)[C@@H](C(C)C)C(=O)O[C@@H]4C)c3nc-2c(C(=O)N[C@@H]2C(=O)N[C@H](C(C)C)C(=O)N3CCC[C@H]3C(=O)N(C)CC(=O)N(C)[C@@H](C(C)C)C(=O)O[C@@H]2C)c(N)c1=O` [actinomycin D, Actinomycin D] (I: T[dV]P[Sar][NMeV] / II: T[dV]P[Sar][NMeV]; ester I:1-I:C, II:1-II:C; linker I:N-II:N via Actinocin(9to1)), the “inhibition” value is “did not have any blocking effect”.
The entry for `C/C=C/[C@H]1O[C@@](O)([C@@H](C)[C@H](O)[C@H](C)[C@H]2OC(=O)/C(OC)=C/C(C)=C/[C@@H](C)[C@@H](O)[C@@H](CC)[C@@H](O)[C@H](C)C/C(C)=C/C=C/[C@@H]2OC)C[C@@H](O[C@H]2C[C@@H](O)[C@H](OC(N)=O)[C@@H](C)O2)[C@@H]1C` [concanamycin A, Concanamycin A] is “failed to inhibit apoptosis”.
With `CCN(CC)CCCC(C)Nc1c2ccc(Cl)cc2nc2ccc(OC)cc12` (centres unmarked) [quinacrine, Quinacrine], the “inhibition” value was “completely inhibited”.
Consider Cyclosporin A, for which the “inhibition” value was “partially inhibited”.
